How the values were obtained:
hGHR = target: T1, hGHR (Homo sapiens, UniProt P10912); test: hGH-mediated pSTAT5 in SK-MEL-28 cells, ELISA; format: cell-based; details: ELISA (pSTAT5A Y694/pSTAT5B Y699), SK-MEL-28 cells co-treated with hGH and 200 nM peptide, Equation 2, triplicate; for inhibition at 0.2 µM: SK-MEL-28, 20 min; for % pSTAT5 inhibition: 20 min
T1 construct: previously reported to express high levels of endogenous hGHR; host or cells: SK-MEL-28, MALME-3M, IM9
T1 sequence (P10912 19-638): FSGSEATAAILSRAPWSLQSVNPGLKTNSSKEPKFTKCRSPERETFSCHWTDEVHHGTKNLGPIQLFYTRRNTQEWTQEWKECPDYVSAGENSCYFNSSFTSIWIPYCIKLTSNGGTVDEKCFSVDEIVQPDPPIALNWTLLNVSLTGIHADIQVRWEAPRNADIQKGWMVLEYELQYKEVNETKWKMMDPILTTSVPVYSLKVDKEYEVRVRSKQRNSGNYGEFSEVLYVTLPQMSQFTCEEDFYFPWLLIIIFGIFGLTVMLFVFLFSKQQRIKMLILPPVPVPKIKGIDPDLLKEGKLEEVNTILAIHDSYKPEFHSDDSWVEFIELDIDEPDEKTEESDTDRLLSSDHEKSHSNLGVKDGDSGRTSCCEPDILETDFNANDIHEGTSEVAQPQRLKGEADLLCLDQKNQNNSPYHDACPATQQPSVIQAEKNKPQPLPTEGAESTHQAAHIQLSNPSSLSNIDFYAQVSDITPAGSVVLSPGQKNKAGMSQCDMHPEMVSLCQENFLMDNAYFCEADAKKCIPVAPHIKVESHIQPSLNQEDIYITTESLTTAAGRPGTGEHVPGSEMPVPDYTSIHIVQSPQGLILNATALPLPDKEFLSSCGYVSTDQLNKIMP
Description: SK-MEL-28, MALME-3M, and T84 cells were grown and maintained in Eagle's Minimal Essential Medium. IM9 and L cells were grown in RPMI-1640 media and Dulbecco's modified Eagle's medium, respectively. All growth media was supplemented with 10% fetal bovine serum and 1× antibiotic-antimycotic […] solution. Cells were grown at 37 °C under a 5% CO2 atmosphere in a humidified incubator, and growth media was replaced every 48 h during incubation. No hGH was present in or added to the growth media unless specifically indicated. Between 12 to 16 h after seeding, adherent cells (SK-MEL-28, MALME-3M, T84, L cells) were switched to serum-free growth media (no GH) and starved for 4 h before the addition of hGH, bGH (L cells), hPRL (MALME-3M and T84 cells), or buffer at the concentrations noted. Cells were then allowed to incubate for an additional 20 min before being harvested. For suspended cell treatments, IM9 cells were pelleted by centrifugation at 140g for 5 min at room temperature. The supernatant was then removed by aspiration, and the cells were resuspended in serum-free media. The cells were then starved for 4 h at 37 °C under a 5% CO2 atmosphere in a humidified incubator and subsequently treated with hGH, S1H, or both at the indicated concentrations for 20 min before harvesting by centrifugation.
Following treatment, the cells were harvested at the indicated time points, and the total protein was extracted. To affect protein extraction, the treatment media was removed by aspiration, and the cells were washed twice with ice-cold PBS. Following washing, total protein was extracted from the cells using RIPA buffer (100 μl/million cells) supplemented with 1.5× Halt protease and phosphatase inhibitor cocktail. Briefly, chilled RIPA buffer was added to the cells, and the lysis reaction was allowed to incubate for 5 min at 4 °C. Adherent cells were harvested for lysis using a sterile cell scraper. The resultant cell suspensions were sonicated on ice for 60 s with ON (2-s)/OFF (1-s) pulses at 2% power. The cell lysate was then cleared by centrifugation at 8000g for 10 min at 4 °C. Following centrifugation, the supernatant was collected and stored at −80 °C until further use. Sample protein concentration was quantified using a Bradford assay with bovine serum albumin as the protein standard. Absorbance at 595 nm was measured using a Spectramax 250 multimode plate reader (Molecular Devices) and processed using SoftmaxPro v4.7.1 software.
Intracellular pSTAT5A (Y694) and pSTAT5B (Y699) levels were quantified from clarified protein samples using an InstantOne ELISA kit (Thermo Fisher) according to the manufacturer’s instructions. Briefly, 50 μl of protein sample (1 mg/ml) were added to wells containing 50 μl antibody cocktail in a 96-well plate and incubated at room temperature for 2 h with shaking (300 rpm). Following incubation, the wells were washed, and the bound antibodies were detected by adding detection regent and incubating the plate for 1 h at room temperature with shaking (300 rpm). Following incubation, stop reagent was added, and the absorbance was read at 450 nm using a UV-VIS spectrophotometer (Molecular Devices, model M2). All experiments were performed in triplicate. Percent pSTAT5 inhibition was calculated from background-subtracted pSTAT5 levels using Equation 2:(2) %inhibition=100×(pSTAT5hGH−pSTAT5PI)/pSTAT5hGH where pSTAT5hGH is the fold-induction of pSTAT5 upon treatment with hGH alone and pSTAT5PI is the fold-induction of pSTAT5 upon co-treatment with hGH and peptide inhibitor.

[1] = Wavelength-dependent CD spectropolarimetry (helical propensity); format: physicochemical; details: 25 °C; for % α-helix + TFE / % α-helix - TFE: calculated from MRE at 222 nm (Equation 1); for % α-helix + TFE / [θ]222 + TFE (mean residue ellipticity at 222 nm): 20 μM peptide in PBS with 30% (v/v) TFE; for % α-helix - TFE / [θ]222 - TFE (mean residue ellipticity at 222 nm): 20 μM peptide in PBS, no TFE; for [θ]222 + TFE (mean residue ellipticity at 222 nm) / [θ]222 - TFE (mean residue ellipticity at 222 nm): far-UV CD, background-subtracted average of four scans, in deg·cm2/dmol (unit assumed)
Description: The solution-phase structure of each peptide was evaluated by wavelength-dependent CD spectropolarimetry. For analysis, stock peptides were diluted to a final concentration of 20 μM in PBS supplemented with or without 30% (v/v) TFE. All peptide solutions were allowed to equilibrate for 10 min at 25 °C before analysis. Far-UV wavelength scans were performed on a Jasco J-715 CD spectropolarimeter from 255 nm to 195 nm at 25 °C. Final spectra were generated from a background subtracted (buffer only) average of four scans. Data were processed using J-700 Software v1.5 (Jasco) and KaleidaGraph v4.5. Percent helicity was calculated from the mean residue ellipticity at 222 nm using Equation 1:(1) %helical content=100×([θ]222/(−39,000(1−2.57/n))) where [θ]222 is the mean residue ellipticity at 222 nm and n is the total number of peptide bonds ([86]).

[2] = target: T2, trypsin (bovine pancreas) (Bos taurus, UniProt P00760); test: Trypsin degradation of hGH and pegvisomant (HPLC and Western blot); format: in vitro ADME; details: 4 μg/ml trypsin in digestion buffer pH 7.8, 37 °C, up to 8 h, 25 μg/ml protein
T2 construct: purchased Sigma-Aldrich; host or cells: bovine pancreas
T2 sequence (P00760 24-246): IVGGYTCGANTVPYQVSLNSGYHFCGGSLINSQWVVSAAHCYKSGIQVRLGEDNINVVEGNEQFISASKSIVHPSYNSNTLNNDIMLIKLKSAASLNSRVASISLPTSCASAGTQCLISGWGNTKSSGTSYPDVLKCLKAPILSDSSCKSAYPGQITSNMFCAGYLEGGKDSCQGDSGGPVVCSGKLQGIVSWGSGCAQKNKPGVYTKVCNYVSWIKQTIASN
Description: (§1) The samples were then incubated at 95 °C for 5 min before being cooled on ice and stored at −80 °C. […] Following separation, the proteins were transferred to polyvinylidine difluoride membranes and subjected to Western blot analysis (vide infra). The fraction of intact protein was quantified by measuring the integrated density of each band contained within regions of the gel corresponding to “intact” or “degraded” proteins. […] These reactions were allowed to incubate at 37 °C for up to 8 h, with samples removed at selected timepoints for analysis. Following incubation, the samples were either mixed with 5× Laemmli loading buffer and subjected to SDS-PAGE for Western blot analysis (Fig. S5) or directly injected onto a C18 reversed-phase column for analysis by HPLC as described above for the S1H peptide (Fig. S4).

[3] = Stability of hGH and pegvisomant in human serum (Western blot); format: in vitro ADME; details: RPMI with 25% (v/v) heat-inactivated human AB serum, 37 °C, 25 μg/ml protein, SDS-PAGE/Western blot densitometry, average of three experiments
Description: as §1

| Substance | inhibition at 0.2 µM (hGHR) [%] | % α-helix + TFE [1] [%] | % α-helix - TFE [1] [%] | [θ]222 + TFE (mean residue ellipticity at 222 nm) [1] | [θ]222 - TFE (mean residue ellipticity at 222 nm) [1] | % pSTAT5 inhibition (hGHR) | time to full degradation by trypsin [2] [h] | protein remaining intact after 48 h in human serum [3] [%] |
| --- | --- | --- | --- | --- | --- | --- | --- | --- |
| Ac-YIPAEQKYSFLQNPQT-NH2 [S1H (K39A)] | 88.5 |  |  |  |  |  |  |  |
| Ac-YIPKAQKYSFLQNPQT-NH2 [S1H (E40A)] | 33.4 |  |  |  |  |  |  |  |
| Ac-YIPKEAKYSFLQNPQT-NH2 [S1H (Q41A)] | 37.4 | 25.4 | 8.3 | -8,400 | -2,700 | reduced inhibitory effects compared with WT S1H |  |  |
| Ac-YIPKEQAYSFLQNPQT-NH2 [S1H (K42A)] | 51.7 | 24.4 | 2.4 | -8,100 | -800 | reduced inhibitory effects compared with WT S1H |  |  |
| Ac-YIPKEQKYSALQNPQT-NH2 [S1H (F45A)] | 52.5 | 21.4 | 11.1 | -7,100 | -3,700 | reduced inhibitory effects compared with WT S1H |  |  |
| Ac-YIPKEQKYSFAQNPQT-NH2 [S1H (L46A)] | 75.1 |  | 7.0 |  | -2,300 | comparable to WT S1H |  |  |
| Ac-YIPKEQKYSFLQAPQT-NH2 [S1H (N48A)] | 89.1 | 12.2 | 6.7 | -4,100 | -2,200 |  |  |  |
| hGH: recombinant human growth hormone, 191-amino acid peptide hormone (22 kDa) |  |  |  |  |  |  | 8 | > 92 |

Second part, led by results:

| inhibition at 0.2 µM (hGHR) [%] | % α-helix + TFE [1] [%] | % α-helix - TFE [1] [%] | [θ]222 + TFE (mean residue ellipticity at 222 nm) [1] | [θ]222 - TFE (mean residue ellipticity at 222 nm) [1] | Substance | % pSTAT5 inhibition (hGHR) | time to full degradation by trypsin [2] [h] | protein remaining intact after 48 h in human serum [3] [%] |
| --- | --- | --- | --- | --- | --- | --- | --- | --- |
| 66.6 | 68.8 | 11.2 | -22,800 | -3,700 | Ac-YIPKEQKASFLQNPQT-NH2 [S1H (Y43A)] | comparable to WT S1H |  |  |
| 72.3 | 63.5 | 15.7 | -21,100 | -5,200 | Ac-YIPKEQKYAFLQNPQT-NH2 [S1H (S44A)] | comparable to WT S1H |  |  |
| 30.1 | 86.3 | 8.2 |  | -2,700 | Ac-YIPKEQKYSFLANPQT-NH2 [S1H (Q47A)] |  |  |  |

— article PMC8086144, “A novel peptide antagonist of the human growth hormone receptor” (The Journal of Biological Chemistry, 2021)
